Like-named read-outs stand apart in the source and are kept apart here.
Experiments:
Hep G2 = experiment: Cytotoxicity assay (MTT), Hep G2 cell line; type: cell-based; conditions: 24 h
Outline: (§1)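 Hep G2 and A549 cells were cultured 24 h at 37° C in RPM medium with test compounds at 50 μM and 12.5 μM. MTT was added for 0.5-2 h and formazan read at 490 nm. Growth value calculated as OD490 treated/OD490 nontreated ×100.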

IL-1α = experiment: Inhibition of IL-1 production by stimulated human peripheral blood leukocytes in vitro; type: cell-based; conditions: Homo sapiens, Leukocyte, read-out: Percentage of inhibition of IL-1α production
TNF-α [1] = experiment: Inhibition of TNF-α production by stimulated human peripheral blood leukocytes in vitro; type: cell-based; conditions: Homo sapiens, Leukocyte, read-out: Percentage of inhibition of TNF-α production
Outline: (§2)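 Values are percentage inhibition of cytokine release versus stimulated leukocytes lacking compound. Human blood leukocytes received 50 μM or 10 μM compound for 2 h before overnight LPS, PMA or zymosan stimulation, and supernatants were assayed by ELISA.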

IL-8 = experiment: Inhibition of IL-8 production by stimulated human peripheral blood leukocytes in vitro; type: cell-based; conditions: Homo sapiens, Leukocyte, read-out: Percentage of inhibition of IL-8 production
Outline: as §2

A549 = experiment: Cytotoxicity assay (MTT), A549 cell line; type: cell-based; conditions: 24 h
Outline: as §1

TNF-α [2] = experiment: Lipopolysaccharide induced TNF-α production in Balb/cJ mice; type: in vivo; conditions: Mus musculus, ip, 1.5 h; 10 mg/kg intraperitoneally, 30 min before LPS; 90 min after LPS; read-out: % inhibition of TNF-α production (plasma)
IL-6 = experiment: Inhibition of IL-6 production by stimulated human peripheral blood leukocytes in vitro; type: cell-based; conditions: Homo sapiens, Leukocyte, read-out: Percentage of inhibition of IL-6 production
Outline: as §2

[3] = system: human peripheral blood mononuclear cells (PBMC); experiment: Effects on human T-cell proliferation in vitro (3H-thymidine incorporation); type: cell-based; conditions: Homo sapiens, PBMC, read-out: Percentage of inhibition of proliferation of stimulated PBMC
Outline: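 Proliferation of human peripheral blood mononuclear cells (PBMC) was assessed in the presence of test compounds. During the final 18 h of culture each well received 1 μCi of ^3H-thymidine. Cells were then collected onto a 96-well filter with a multiple cell harvester, and ^3H-thymidine incorporation was counted on a TopCount NXT to give percentage inhibition of proliferation.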

Structure (SMILES)	Percentage of inhibition of cell growth (Hep G2; 12.5 μM) [%]	Percentage of inhibition of cell growth (Hep G2; 50 μM) [%]	inhibition at 10 µM (IL-1α; LPS-stimulated PBL) [%]	inhibition at 10 µM (IL-1α; PMA-stimulated PBL) [%]	inhibition at 10 µM (IL-1α; zymosan-stimulated PBL) [%]	inhibition at 50 µM (IL-1α; LPS-stimulated PBL) [%]	inhibition at 50 µM (IL-1α; PMA-stimulated PBL) [%]	inhibition at 50 µM (IL-1α; zymosan-stimulated PBL) [%]	inhibition at 10 µM (TNF-α [1]; LPS-stimulated PBL) [%]	inhibition at 10 µM (TNF-α [1]; PMA-stimulated PBL) [%]	inhibition at 10 µM (TNF-α [1]; zymosan-stimulated PBL) [%]	inhibition at 50 µM (TNF-α [1]; LPS-stimulated PBL) [%]	inhibition at 50 µM (TNF-α [1]; PMA-stimulated PBL) [%]	inhibition at 50 µM (TNF-α [1]; zymosan-stimulated PBL) [%]	inhibition at 10 µM (IL-8; LPS-stimulated PBL) [%]	inhibition at 10 µM (IL-8; PMA-stimulated PBL) [%]	inhibition at 10 µM (IL-8; zymosan-stimulated PBL) [%]	inhibition at 50 µM (IL-8; LPS-stimulated PBL) [%]	inhibition at 50 µM (IL-8; PMA-stimulated PBL) [%]	inhibition at 50 µM (IL-8; zymosan-stimulated PBL) [%]	further results
CC[C@H]1OC(=O)[C@H](C)[C@@H](O[C@H]2C[C@@](C)(OC)[C@@H](OC(=O)CCN(C)CCO)[C@H](C)O2)[C@H](C)[C@@H](O[C@@H]2O[C@H](C)C[C@H](N(C)C)[C@H]2O)[C@](C)(OC)C[C@@H](C)C(=O)N[C@H](C)[C@@H](O)[C@]1(C)O [Example 15]	3	0	80	80	96	98	96	99	61	82	93	99	96	100	38	0	42	94	95	91	Percentage of inhibition of cell growth (A549; 12.5 μM): 0%; Percentage of inhibition of cell growth (A549; 50 μM): 5%; inhibition in vivo at 10 mg/kg (TNF-α [2]): 100%; inhibition at 10 µM (IL-6; LPS-stimulated PBL): 39%; inhibition at 10 µM (IL-6; PMA-stimulated PBL): 50%; inhibition at 10 µM (IL-6; zymosan-stimulated PBL): 76%; inhibition at 50 µM (IL-6; LPS-stimulated PBL): 93%; inhibition at 50 µM (IL-6; PMA-stimulated PBL): 95%; inhibition at 50 µM (IL-6; zymosan-stimulated PBL): 96%; inhibition at 10 µM ([3]; PHA): 68%; inhibition at 50 µM ([3]; PHA): 99%; inhibition at 10 µM ([3]; PMA + iono.): 53%; inhibition at 50 µM ([3]; PMA + iono.): 98%
CC[C@H]1OC(=O)[C@H](C)[C@@H](O[C@H]2C[C@@](C)(OC)[C@@H](OC(=O)CCN3CCN(CCN(C)C)CC3)[C@H](C)O2)[C@H](C)[C@@H](O[C@@H]2O[C@H](C)C[C@H](N(C)C)[C@H]2O)[C@](C)(OC)C[C@@H](C)C(=O)N[C@H](C)[C@@H](O)[C@]1(C)O [Example 17]	5	2	25	55	58	44	75	90	13	46	30	21	67	46	4	21	20	6	13	13	Percentage of inhibition of cell growth (A549; 12.5 μM): 5%; Percentage of inhibition of cell growth (A549; 50 μM): 2%; inhibition in vivo at 10 mg/kg (TNF-α [2]): 84%; inhibition at 10 µM (IL-6; LPS-stimulated PBL): 9%; inhibition at 10 µM (IL-6; PMA-stimulated PBL): 37%; inhibition at 10 µM (IL-6; zymosan-stimulated PBL): 33%; inhibition at 50 µM (IL-6; LPS-stimulated PBL): 14%; inhibition at 50 µM (IL-6; PMA-stimulated PBL): 55%; inhibition at 50 µM (IL-6; zymosan-stimulated PBL): 60%; inhibition at 10 µM ([3]; PHA): 0%; inhibition at 50 µM ([3]; PHA): 70%; inhibition at 10 µM ([3]; PMA + iono.): 3%; inhibition at 50 µM ([3]; PMA + iono.): 49%
CC[C@H]1OC(=O)[C@H](C)[C@@H](O[C@H]2C[C@@](C)(OC)[C@@H](OC(=O)CCN(C)CCN(CC)CC)[C@H](C)O2)[C@H](C)[C@@H](O[C@@H]2O[C@H](C)C[C@H](N(C)C)[C@H]2O)[C@](C)(OC)C[C@@H](C)C(=O)N[C@H](C)[C@@H](O)[C@]1(C)O [Example 21]	8	4	14	31	58	54	69	86	0	8	5	10	75	39	0	6	0	4	23	13	Percentage of inhibition of cell growth (A549; 12.5 μM): 5%; Percentage of inhibition of cell growth (A549; 50 μM): 4%; inhibition in vivo at 10 mg/kg (TNF-α [2]): 61%; inhibition at 10 µM (IL-6; LPS-stimulated PBL): 1%; inhibition at 10 µM (IL-6; PMA-stimulated PBL): 17%; inhibition at 10 µM (IL-6; zymosan-stimulated PBL): 22%; inhibition at 50 µM (IL-6; LPS-stimulated PBL): 22%; inhibition at 50 µM (IL-6; PMA-stimulated PBL): 63%; inhibition at 50 µM (IL-6; zymosan-stimulated PBL): 50%; inhibition at 10 µM ([3]; PHA): 0%; inhibition at 50 µM ([3]; PHA): 80%; inhibition at 10 µM ([3]; PMA + iono.): 0%; inhibition at 50 µM ([3]; PMA + iono.): 74%
